Results on three compounds are retold here after PMC7824769, “Identification of Small Molecules Blocking the Pseudomonas aeruginosa Type III Secretion System Protein PcrV” (Biomolecules, 2021).

For orientation: viability means a read-out of living cells in per cent, often relative to untreated cells.

The assay deals with J774 cells infected with P. aeruginosa strain PAK. The assay is described as follows: cells. Format: cell-based, Pseudomonas aeruginosa. The note with it: for Anti-virulence efficacy in the infection assay (in words): 25-200 µM; for viability at 25 µM / viability at 50 µM / viability at 100 µM / viability at 200 µM: Pseudomonas aeruginosa; for viability at 25 µM: J774, compound 25 µM; for viability at 50 µM: J774, compound 50 µM; for viability at 100 µM: J774, compound 100 µM; for viability at 200 µM: J774, compound 200 µM. On the procedure: The cell viability assay was performed essentially as described before. J774 cells were seeded in 96-well micro-titer plates (Nunc), 100 µL/well, to a final number of 50,000 cells/well in Dulbecco’s modified Eagle’s medium (DMEM) with glutamax (Merck) supplemented with 10% fetal calf serum (FCS) and 3 µg/mL gentamicin and incubated for 16-18 h. Overnight cultures of the P. aeruginosa strains PAK and PAKpcrV [10] were grown in Luria Broth (LB) on a rotary shaker at 220 rpm at 37 °C. Prior to infection, the bacteria were diluted 1:10 in DMEM + glutamax and incubated for 1 h at 37 °C (shaking). The J774 cells were washed once with PBS, then 30 µL of DMEM with glutamax and 10% FCS supplemented with the potential binders at concentrations of 50, 100, 200, and 400 µM were added to the wells in triplicates. The infection was initiated by adding 30 µL of the diluted bacterial solutions (where the OD600 had been diluted to 0.0008) to each well to initiate infection. This infection results in a final bacterial concentration of OD600 = 0.0004 and a multiplicities of infection (MOI) of approximately 8, with final concentrations of the compounds at 25, 50, 100, and 200 µM in 60 µL of DMEM + glutamax and 5% FCS. In the primary screening, the compounds were run at one concentration (100 µM) in duplicates. As an infection control, the wild-type strain PAK with 1% DMSO was added, and as a positive control, PAKpcrV with 1% DMSO was added into four wells each. After 3 h and 30 min, 10 µL of UptiBlue Viable Cell Counting Kit (Interchime, France) was added to all wells. The infection was followed under the light microscope and the fluorescence (excitation 535 nm and emission 595 nm) was measured at 4, 5, and 6 h in a microplate reader (Synergy™ H4, Biotek). The results were calculated as percentage of living cells compared to uninfected control, where the uninfected control was set to 100% living cells and the infected control was set to 0% living cells. As a control, compounds were added to uninfected cells in a parallel experiment and viability was calculated as above to screen for cell toxicity. A compound was considered toxic if the viability was <80% of the uninfected control after 6 h of incubation and if a visual change of cell morphology was observed by microscopy. Z’ was calculated for each plate to ensure good quality throughout the screening. Only results from plates with a Z’ > 0.4 were counted. Standard deviation was calculated with Gaussian approximation when appropriate and shown as error bars in Figure 3C and Figure 4A.
The T3SS is important for P. aeruginosa infection of eukaryotic cells, and a T3SS activator mutant or a mutant lacking the T3SS tip protein PcrV are not able to infect eukaryotic cells. The macrophage cell line, J774, was infected with the wild-type P. aeruginosa strain PAK, and the potential PcrV binders were added to the wells at a final concentration of 100 µM to screen for inhibition of infection. The T3SS-mediated cytotoxic effect on the eukaryotic cells was measured by using a viability staining method (Uptiblue, Interchim), and the results were measured after 4, 5, and 6 h of infection. The pcrV-mutant (PAKpcrV), which is not able to infect macrophages due to deletion of the PcrV protein, was used as a control.

[1] abbreviates: uninfected control = 100%, infected control = 0%, read-out: Viability Assay (% of Uninfected Control) 25 µM.
[2] abbreviates: uninfected control = 100%, infected control = 0%, read-out: Viability Assay (% of Uninfected Control) 50 µM.
The mark [3] stands for this setting: uninfected control = 100%, infected control = 0%, read-out: Viability Assay (% of Uninfected Control) 100 µM.
Where [4] appears, read: uninfected control = 100%, infected control = 0%.

Where two headings read alike, the source gives them in different places.

For the compound `Cc1c(Br)ccc(OC[C@@H]2C[C@H]2C(=O)O)c1C` (relative stereo) [Compound 32], the “Anti-virulence efficacy in the infection assay (in words)” value was “as efficacious as or better than H1”. In addition, under setting [1], the viability at 25 µM stood at 22%. Also, the viability at 50 µM under setting [2] turned out to be 21%. Under setting [3], the viability at 100 µM is 33%. The viability at 200 µM under setting [4] is not above 38%.

`Cc1c(Br)ccc(OC[C@@H]2C[C@@H]2C(=O)O)c1C` (relative stereo) [Compound 33]: the “Anti-virulence efficacy in the infection assay (in words)” value is “as efficacious as or better than H1”. Moreover, the viability at 25 µM under setting [1] was found to be 24%. Moreover, under setting [2], the viability at 50 µM was 24%. Besides, under setting [3], the viability at 100 µM worked out at 38%. Besides, under setting [4], the viability at 200 µM was not above 38%.

Turning to `Cc1c(Br)ccc(OCCCC(=O)O)c1C` [Compound H1], the viability at 25 µM by setting is: (one representative experiment, read-out: Macrophage Viability, wt+25 µM (Figure 3C)) -4%; under setting [1], 12%. The viability at 50 µM runs as follows: (one representative experiment, read-out: Macrophage Viability, wt+50 µM (Figure 3C)) 19%; under setting [2], 20%. The viability at 100 µM was 42% (one representative experiment, read-out: Macrophage Viability, wt+100 µM (Figure 3C)) and 27% under setting [3]. The viability at 200 µM under setting [4] worked out at 28%.
